Measurements: patent US11716992B2, “5A5B6C tricyclic spirolactone derivative, preparation method therefor and use thereof” (NANKAI UNIVERSITY, priority 2017, dated 2023)
Several values for one entry are separate records, joined by “and”; a condition that tells them apart may be missing. Identical values can stand only once. Like-named read-outs stand apart in the source and are kept apart here.

Tests used:
[1] = test system: Pellicularia sasakii; assay: Fungicidal activity, fungicide growth rate method, PS; type: cell-based; settings: 50 μg/mL; for inhibition at 50 µg/mL: read-out: fungicidal activity (growth inhibition rate), PS
[2] = test system: Rhizoctonia cerealis; assay: Fungicidal activity, fungicide growth rate method, RC; type: cell-based; settings: Ceratobasidium cereale, 50 μg/mL; read-out: fungicidal activity (growth inhibition rate), RC
[3] = test system: Ostrinia furnacalis; assay: Insecticidal activity against Ostrinia furnacalis; type: in vivo; settings: Ostrinia furnacalis; 100 μg/mL; read-out: insecticidal activity, Ostrinia furnacalis
[4] = test system: Botrytis cinerea; assay: Fungicidal activity, fungicide growth rate method, BC; type: cell-based; settings: 50 μg/mL; for inhibition at 50 µg/mL: Botrytis cinerea, read-out: fungicidal activity (growth inhibition rate), BC
[5] = test system: Cercospora arachidicola; assay: Fungicidal activity, fungicide growth rate method, CA; type: cell-based; settings: 50 μg/mL; for inhibition at 50 µg/mL: Mycosphaerella arachidis, read-out: fungicidal activity (growth inhibition rate), CA
[6] = test system: wheat Gibberella zeae; assay: microbe, parasite or virus in culture; type: cell-based; settings: for inhibition at 50 µg/mL: Fusarium graminearum, read-out: fungicidal activity (growth inhibition rate), GZ, 50 μg/mL
[7] = test system: Tobacco Mosaic Virus; assay: Anti-TMV inactivation activity on tobacco plants; type: in vivo; set-up: concentration or dose not given beside the values; settings: compound mixed with TMV solution 30 minutes, lesions checked three days later
[8] = test system: Mythimna separate (Walker); assay: Insecticidal activity against Mythimna separate (Walker); type: in vivo; settings: Mythimna, 100 μg/mL; read-out: insecticidal activity, Mythimna separate (Walker)
[9] = test system: Helicoverpa armigera (Hübner); assay: Insecticidal activity against Helicoverpa armigera (Hübner); type: in vivo; settings: Helicoverpa armigera; 100 μg/mL; read-out: insecticidal activity, Helicoverpa armigera (Hübner)
[10] = test system: Sclerotinia sclerotiorum; assay: Fungicidal activity, fungicide growth rate method, SS; type: cell-based; settings: 50 μg/mL; for inhibition at 50 µg/mL: Sclerotinia sclerotiorum
[11] = test system: Apis mellifera ligustica Spin; settings: for Death number after 24 h / Death number after 48 h: per replicate of 10 bees
[12] = test system: Physalospora piricola; assay: Fungicidal activity, fungicide growth rate method, PP; type: cell-based; settings: 50 μg/mL; for inhibition at 50 µg/mL: read-out: fungicidal activity (growth inhibition rate), PP
[13] = test system: Caenorhabditis elegans; assay: Insecticidal activity against Caenorhabditis elegans; type: in vivo; settings: 100 μg/mL; for pest or weed control at 100 µg/mL: Caenorhabditis elegans, read-out: insecticidal activity, Caenorhabditis elegans
[14] = test system: Alternaria solani; assay: Fungicidal activity, fungicide growth rate method, AS; type: cell-based; settings: 50 μg/mL; for inhibition at 50 µg/mL: Alternaria solani, read-out: fungicidal activity (growth inhibition rate), AS
[15] = test system: Phytophthora infestans (Mont.) de Bary; assay: microbe, parasite or virus in culture; type: cell-based; settings: Phytophthora infestans, read-out: fungicidal activity (growth inhibition rate), PI, 50 μg/mL

Compound | inhibition at 50 µg/mL [1] | inhibition at 50 µg/mL [2] | pest or weed control at 100 µg/mL [3] | inhibition at 50 µg/mL [4] | inhibition at 50 µg/mL [5] | inhibition at 50 µg/mL [6] | TMV inactivation (anti-TMV activity) [7] | pest or weed control at 100 µg/mL [8] | pest or weed control at 100 µg/mL [9] | inhibition at 50 µg/mL [10] | inhibition at 50 µg/mL [12] | pest or weed control at 100 µg/mL [13] | inhibition at 50 µg/mL [14] | inhibition at 50 µg/mL [15] | other results
C=CC[C@@H]1C[C@]2(O)CCO[C@@]23C[C@H]2O[C@H]2C[C@H]13 [Zyj07-31-2] | 18% | 21% | 0% | 18% | 27% | 3% | 15% | > 30% | 0% | > 50% | 31% | 8% | 22% | 21% | Death rate after 48 h (%) ([11]; dosage 6.51 μg a.i./bee): 0%; Death number after 24 h ([11]; dosage 6.51 μg a.i./bee): 0; Death number after 48 h ([11]; dosage 6.51 μg a.i./bee): 0; Death rate after 48 h (%) ([11]; dosage 9.36 μg a.i./bee): 10.0%; Death number after 24 h ([11]; dosage 9.36 μg a.i./bee): 0; Death number after 48 h ([11]; dosage 9.36 μg a.i./bee): 1
C=CC[C@@H]1C[C@]2(O)C[C@H](O[C@]34CCO[C@@]35CC=CC[C@H]5[C@H](CC=C)C4)O[C@@]23CC=CC[C@H]13 [Zyj07-30-1] | – | 0% | 0% | – | – | – | 8% | 0% | 0% | – | – | – | – | 21% | fungicidal activity (growth inhibition rate), PS [1]: 22%; fungicidal activity (growth inhibition rate), BC [4]: 5%; fungicidal activity (growth inhibition rate), CA [5]: 41%; fungicidal activity (growth inhibition rate), GZ ([6]; 50 μg/mL): 0%; fungicidal activity (growth inhibition rate), SS [10]: 95%; Death rate after 48 h (%) ([11]; dosage 5.12 μg a.i./bee): 0%; Death number after 24 h ([11]; dosage 5.12 μg a.i./bee): 0; Death number after 48 h ([11]; dosage 5.12 μg a.i./bee): 0; Death rate after 48 h (%) ([11]; dosage 10.6 μg a.i./bee): 5.0%; Death number after 24 h ([11]; dosage 10.6 μg a.i./bee): 0; Death number after 48 h ([11]; dosage 10.6 μg a.i./bee): 0 and 1; fungicidal activity (growth inhibition rate), PP [12]: 83%; insecticidal activity, Caenorhabditis elegans [13]: 5%; fungicidal activity (growth inhibition rate), AS [14]: 14%
C=CC[C@@H]1C[C@]2(O)CCO[C@@]23C[C@@H]2O[C@@H]2C[C@H]13 [Zyj07-31-1] | 0% | 7% | 0% | 36% | 41% | 7% | 11% | 0% | 0% | 0% | > 50% | 18% | 14% | 15% | –
C=CC[C@@H]1C[C@]2(O)CCO[C@@]23CC[C@H](O)C[C@H]13 [Zyj07-33] | 27% | 41% | 10% | > 50% | 46% | 27% | 9% | > 30% | 15% | 31% | > 50% | 27% | 24% | 16% | –
C=CC[C@@H]1C[C@]2(OC(C)=O)C[C@H](OC(C)=O)O[C@@]23CC=CC[C@H]13 [Zyj07-37-2] | 18% | 21% | 0% | 18% | 27% | 3% | 28% | 20% | 15% | > 50% | 31% | 13% | 22% | 21% | –
